Data published in patent US20120020915A1, “Compounds and Methods for Treating Cancer and Diseases of the Central Nervous System” (QUEENS UNIVERSITY AT KINGSTON, priority 2007, published 2012).
Counter-ions that a name gives are not always drawn. Like-named read-outs stand apart in the source and are kept apart here. One block for each compound: values may come before it.

Tests used:
[1] = target: T1, HO-2 (rat brain) (Rattus norvegicus, UniProt P23711); experiment: HO enzymatic activity, rat brain microsomal fraction (CO formation from methemalbumin); format: biochemical
T1 construct: brain microsomes were used as a source of HO-2; from tissue; host or cells: brain microsomal fraction of adult male Sprague-Dawley rats
T1 sequence (P23711 1-315): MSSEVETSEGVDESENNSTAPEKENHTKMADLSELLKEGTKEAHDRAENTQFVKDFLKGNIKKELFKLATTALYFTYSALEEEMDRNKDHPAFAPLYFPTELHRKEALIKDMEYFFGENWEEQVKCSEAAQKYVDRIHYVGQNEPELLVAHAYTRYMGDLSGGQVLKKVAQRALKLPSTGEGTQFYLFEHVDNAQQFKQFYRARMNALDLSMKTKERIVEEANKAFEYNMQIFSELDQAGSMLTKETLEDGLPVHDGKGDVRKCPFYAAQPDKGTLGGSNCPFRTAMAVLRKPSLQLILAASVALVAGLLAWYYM

[2] = target: T2, HO-1 (rat spleen) (Rattus norvegicus, UniProt P06762); experiment: HO enzymatic activity, rat spleen microsomal fraction (CO formation from methemalbumin); format: biochemical
T2 construct: Spleen microsomes were used as a source of HO-1; from tissue; host or cells: spleen microsomal fraction of adult male Sprague-Dawley rats
T2 sequence (P06762 1-289): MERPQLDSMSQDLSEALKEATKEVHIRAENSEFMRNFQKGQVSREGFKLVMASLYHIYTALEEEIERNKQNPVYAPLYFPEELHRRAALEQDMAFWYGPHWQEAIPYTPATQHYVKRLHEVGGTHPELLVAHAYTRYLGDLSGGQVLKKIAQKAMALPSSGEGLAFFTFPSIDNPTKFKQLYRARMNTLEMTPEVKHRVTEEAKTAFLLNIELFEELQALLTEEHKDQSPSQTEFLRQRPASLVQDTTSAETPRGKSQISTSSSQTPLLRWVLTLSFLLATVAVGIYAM

[3] = test system: cultured rat astroglia; details: cited from earlier work; for mitochondrial iron accumulation in astroglia transfected with human ho-1 gene: transient transfection
[4] = IC50 HO-2 (rat brain)/μM), CO formation from methemalbumin, mean ± SD of replicate experiments
[5] = CO formation from methemalbumin, mean ± SD of replicate experiments, read-out: IC50 HO-1 (rat spleen/μM)
[6] = IC50 HO-1 (rat spleen/μM), average ± SD of replicate experiments
[7] = IC50 HO-2 (rat brain)/μM), average ± SD of replicate experiments

melting point: 110 to 111 °C
Compound: Cl.FC(F)(F)c1ccc(CCCCn2ccnc2)cc1

Compound: Cl.OC(CCc1ccc(I)cc1)Cn1ccnc1 (racemic) [QC-74, (±)-1-(1H-Imidazol-1-yl)-4-(4-iodophenyl)-2-butanol hydrochloride]
IC50 [1, 4]: 2 ± 1 µM | melting point: 196 to 197 °C

Compound: Cl.OC(CCc1ccccc1)Cn1ccnc1 (racemic) [QC-76, (±)-1-(1H-imidazol-1-yl)-4-phenyl-2-butanol hydrochloride]
IC50 [2, 5]: 6 ± 1 µM | IC50 [1, 4]: 16 ± 8 µM | melting point: 56 to 57 °C

Compound: Cl.OC(CCc1ccc(Br)cc1)Cn1ccnc1 (racemic) [QC-79, (±)-4-(4-Bromophenyl)-1-(1H-imidazol-1-yl)-2-butanol hydrochloride]
IC50 [2, 5]: 0.1 ± 0.1 µM | IC50 [1, 4]: 2.6 ± 0.5 µM | melting point: 174 to 175 °C

melting point: 128 to 129 °C
Compound: COc1ccc(OCC2CO[C@@](CCc3ccc(Cl)cc3)(Cn3ccnc3)O2)cc1.Cl (stereo in doubt) [QC-132, (2R,4S)-1-[2-[2-(4-Chlorophenyl)ethyl]-4-(4-methoxyphenoxymethyl)-[1,3]dioxolan-2-ylmethyl]-1H-imidazole hydrochloride]

Compound: Cl.Ic1ccc(CCC2(Cn3ccnc3)OCCO2)cc1 [QC-78, 1-((2-(2-(4-Iodophenyl)ethyl)-1,3-dioxolan-2-yl)methyl)-1H-imidazole hydrochloride]
IC50 ([2]; IC50 HO-1 (rat spleen/μM), CO formation from methemalbumin, mean ± SD of replicate experiments): 4 ± 1 µM | melting point: 241 to 243 °C (dec.)

Compound: Cl.O=C(Cn1ccnc1)C12CC3CC(CC(C3)C1)C2 [QC-82, 1-(adamantan-1-yl)-2-imidazol-1-yl-ethanone hydrochloride]
IC50 [2, 5]: 3 ± 1 µM | IC50 [1, 4]: > 100 µM | melting point: 261 to 262 °C

IC50 [2, 5]: 0.5 ± 0.3 µM | melting point: 121 to 122 °C
Compound: Cl.Clc1ccc(CCCCn2ccnc2)cc1 [QC-105, 1-[4-(4-chlorophenyl)butyl]-1H-imidazole hydrochloride]

melting point: 156 to 157 °C
Compound: Cl.Clc1ccc(CC[C@@]2(Cn3ccnc3)OC[C@@H](CSc3ccc4ccccc4c3)O2)cc1 [QC-121, (2R,4S)-1-[2-[2-(4-Chlorophenyl)ethyl]-4-(naphthalen-2-ylsulfanylmethyl)-[1,3]dioxolan-2-ylmethyl]-1H-imidazole hydrochloride]

melting point: 162 to 163 °C
Compound: Cl.Clc1ccc(CC[C@@]2(Cn3ccnc3)OC[C@@H](COc3ccc(-c4ccccc4)cc3)O2)cc1 [QC-129]

IC50 ([2]; average ± SD of replicate experiments, read-out: IC50 HO-1 (rat spleen/μM)): 382 µM | IC50 ([1]; average ± SD of replicate experiments, read-out: IC50 HO-2 (rat brain)/μM)): 251 µM
Compound: O=C(CCc1ccc(O)cc1)Cn1ccnc1 [QC-206, 4-(4-Hydroxyphenyl)-1-(1H-imidazol-1-yl)butan-2-one hydrochloride]

Compound: O=C(CCn1ccnc1)c1ccccc1 [QC-242, 3-(1H-Imidazol-1-yl)-1-phenyl-propan-1-one hydrochloride]
IC50 [2, 6]: 79 µM | IC50 [1, 7]: > 100 µM

Compound: c1ccc(C2(Cn3ccnc3)OCCO2)cc1 [QC-246, 1-(2-Phenyl-[1,3]dioxolan-2-ylmethyl)-1H-imidazole hydrochloride]
IC50 [2, 6]: 32 ± 3 µM | IC50 [1, 7]: > 100 µM

Compound: c1ccc(C2(Cn3cncn3)OCCO2)cc1 [QC-254, 1-(2-Phenyl-[1,3]dioxolan-2-ylmethyl-1H-[1,2,4]triazole hydrochloride]
IC50 [2, 6]: 144 ± 15 µM | IC50 [1, 7]: > 100 µM

Compound: CCC1=C(C)c2cc3[n-]c(cc4[n-]c(cc5nc(cc1n2)C(C)=C5CC)c(C)c4CCC(=O)O)c(CCC(=O)O)c3C.[Cl-].[Cl-].[Sn+4] [SnMP]
mitochondrial iron accumulation in astroglia transfected with human ho-1 gene [3]: abolished the pathological accumulation of mitochondrial ^55Fe

Compound: C[C@@H]1C[C@H]2[C@@H]3CCC4=CC(=O)C=C[C@]4(C)[C@@]3(F)[C@@H](O)C[C@]2(C)[C@@]1(O)C(=O)CO [dexamethasone]
mitochondrial iron sequestration in astrocytes exposed to β-amyloid, TNFα or IL-1β ([3]; dexamethasone 50 μg/mL): significantly attenuated mitochondrial iron sequestration | mitochondrial iron accumulation in astroglia transfected with human ho-1 gene [3]: abolished the pathological accumulation of mitochondrial ^55Fe

IC50 [2, 5]: 2 ± 1 µM | IC50 ([1]; CO formation from methemalbumin, mean ± SD of replicate experiments, read-out: IC50 HO-2 (rat brain)/μM)): > 43 µM
Compound: (2R,4R)-2-[2-(4-phenyl)ethyl]-2-[(1H-imidazol-1-yl)methyl]-4-methyl-1,3-dioxolane hydrochloride [QC-35]
